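These data come from cells grown in 96-well plates and exposed to compound for 48 hours at five concentrations. GI50 = concentration required for 50% inhibition of growth. At the TGI there is no net growth.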
What was measured:
Experiment in all cases: NCI anticancer screen, dose series, 48 h
786-0 renal = tested on: 786-0 renal
A498 renal = tested on: A498 renal
A549 NSCLC = tested on: A549 NSCLC
ACHN renal = tested on: ACHN renal
BT-549 breast = tested on: BT-549 breast
CAKI-1 renal = tested on: CAKI-1 renal
CCRF-CEM leukemia = tested on: CCRF-CEM leukemia
COLO 205 colon = tested on: COLO 205 colon
DU-145 prostate = tested on: DU-145 prostate
HCC-2998 colon = tested on: HCC-2998 colon
HCT-116 colon = tested on: HCT-116 colon
HCT-15 colon = tested on: HCT-15 colon
HL-60(TB) leukemia = tested on: HL-60(TB) leukemia
HOP-62 NSCLC = tested on: HOP-62 NSCLC
HOP-92 NSCLC = tested on: HOP-92 NSCLC
HS 578T breast = tested on: HS 578T breast
HT29 colon = tested on: HT29 colon
IGROV1 ovarian = tested on: IGROV1 ovarian
K-562 leukemia = tested on: K-562 leukemia
KM12 colon = tested on: KM12 colon
LOX IMVI melanoma = tested on: LOX IMVI melanoma
M14 melanoma = tested on: M14 melanoma
MALME-3M melanoma = tested on: MALME-3M melanoma
MCF7 breast = tested on: MCF7 breast
MDA-MB-231 breast = tested on: MDA-MB-231 breast
MDA-MB-435 = tested on: MDA-MB-435
MOLT-4 leukemia = tested on: MOLT-4 leukemia
NCI-H226 lung = tested on: NCI-H226 lung
NCI-H23 lung = tested on: NCI-H23 lung
NCI-H460 lung = tested on: NCI-H460 lung
NCI-H522 lung = tested on: NCI-H522 lung
NCI/ADR-RES ovarian = tested on: NCI/ADR-RES ovarian
OVCAR-3 ovarian = tested on: OVCAR-3 ovarian
OVCAR-4 ovarian = tested on: OVCAR-4 ovarian
OVCAR-5 ovarian = tested on: OVCAR-5 ovarian
OVCAR-8 ovarian = tested on: OVCAR-8 ovarian
PC-3 prostate = tested on: PC-3 prostate
RPMI-8226 leukemia = tested on: RPMI-8226 leukemia
RXF 393 renal = tested on: RXF 393 renal
SF-268 CNS = tested on: SF-268 CNS
SF-295 CNS = tested on: SF-295 CNS
SF-539 CNS = tested on: SF-539 CNS
SK-MEL-2 melanoma = tested on: SK-MEL-2 melanoma
SK-MEL-28 melanoma = tested on: SK-MEL-28 melanoma
SK-MEL-5 melanoma = tested on: SK-MEL-5 melanoma
SK-OV-3 ovarian = tested on: SK-OV-3 ovarian
SN12C renal = tested on: SN12C renal
SNB-19 CNS = tested on: SNB-19 CNS
SNB-75 CNS = tested on: SNB-75 CNS
SR leukemia = tested on: SR leukemia
SW-620 colon = tested on: SW-620 colon
T-47D breast = tested on: T-47D breast
TK-10 renal = tested on: TK-10 renal
U251 CNS = tested on: U251 CNS
UACC-257 melanoma = tested on: UACC-257 melanoma
UACC-62 melanoma = tested on: UACC-62 melanoma
UO-31 renal = tested on: UO-31 renal

Compound CCN(Cc1ccccn1)c1ccc(CO)c(Cl)c1 has a GI50 (786-0 renal) greater than 100 µM, a TGI (786-0 renal) greater than 100 µM and a GI50 (A498 renal) of 0.125 µM. For the same compound, the TGI (A498 renal) was 0.266 µM, the GI50 (A549 NSCLC) was 16.6 µM and the TGI (A549 NSCLC) was greater than 100 µM. For the same compound, the GI50 (ACHN renal) was greater than 100 µM, the TGI (ACHN renal) was greater than 100 µM and the GI50 (BT-549 breast) was greater than 100 µM. The TGI (BT-549 breast) was greater than 100 µM, the GI50 (CAKI-1 renal) was 39 µM and the TGI (CAKI-1 renal) was greater than 100 µM. It also gave a GI50 (CCRF-CEM leukemia) greater than 100 µM, a TGI (CCRF-CEM leukemia) greater than 100 µM and a GI50 (COLO 205 colon) of 4.65 µM. For the same compound, the TGI (COLO 205 colon) was 16 µM, the GI50 (DU-145 prostate) was greater than 100 µM and the TGI (DU-145 prostate) was greater than 100 µM. It also gave a GI50 (HCC-2998 colon) of 18.1 µM, a TGI (HCC-2998 colon) greater than 100 µM and a GI50 (HCT-116 colon) of 1.12 µM. For the same compound, the TGI (HCT-116 colon) was greater than 100 µM, the GI50 (HCT-15 colon) was greater than 100 µM and the TGI (HCT-15 colon) was greater than 100 µM. The GI50 (HL-60(TB) leukemia) was 46 µM, the TGI (HL-60(TB) leukemia) was greater than 100 µM and the GI50 (HOP-62 NSCLC) was 46.1 µM. It also gave a TGI (HOP-62 NSCLC) greater than 100 µM, a GI50 (HOP-92 NSCLC) of 10 µM and a TGI (HOP-92 NSCLC) greater than 96.6 µM. The GI50 (HS 578T breast) was greater than 100 µM, the TGI (HS 578T breast) was greater than 100 µM and the GI50 (HT29 colon) was greater than 69.8 µM. For the same compound, the TGI (HT29 colon) was greater than 100 µM, the GI50 (IGROV1 ovarian) was 0.68 µM and the TGI (IGROV1 ovarian) was 3.89 µM. The GI50 (K-562 leukemia) was 17.3 µM, the TGI (K-562 leukemia) was greater than 100 µM and the GI50 (KM12 colon) was greater than 100 µM. For the same compound, the TGI (KM12 colon) was greater than 100 µM, the GI50 (LOX IMVI melanoma) was greater than 100 µM and the TGI (LOX IMVI melanoma) was greater than 100 µM. It also gave a GI50 (M14 melanoma) greater than 100 µM, a TGI (M14 melanoma) greater than 100 µM and a GI50 (MALME-3M melanoma) greater than 100 µM. The TGI (MALME-3M melanoma) was greater than 100 µM, the GI50 (MCF7 breast) was 2.78 µM and the TGI (MCF7 breast) was greater than 100 µM. It also gave a GI50 (MDA-MB-231 breast) greater than 100 µM, a TGI (MDA-MB-231 breast) greater than 100 µM and a GI50 (MDA-MB-435) greater than 100 µM. It also gave a TGI (MDA-MB-435) greater than 100 µM, a GI50 (MOLT-4 leukemia) greater than 100 µM and a TGI (MOLT-4 leukemia) greater than 100 µM. The GI50 (NCI-H226 lung) was 0.151 µM, the TGI (NCI-H226 lung) was 0.332 µM and the GI50 (NCI-H23 lung) was greater than 100 µM. For the same compound, the TGI (NCI-H23 lung) was greater than 100 µM, the GI50 (NCI-H460 lung) was 2.71 µM and the TGI (NCI-H460 lung) was 40.7 µM. For the same compound, the GI50 (NCI-H522 lung) was greater than 100 µM, the TGI (NCI-H522 lung) was greater than 100 µM and the GI50 (NCI/ADR-RES ovarian) was 52.2 µM. It also gave a TGI (NCI/ADR-RES ovarian) greater than 100 µM, a GI50 (OVCAR-3 ovarian) of 3.75 µM and a TGI (OVCAR-3 ovarian) of 23.3 µM. The GI50 (OVCAR-4 ovarian) was 2.32 µM, the TGI (OVCAR-4 ovarian) was 34.7 µM and the GI50 (OVCAR-5 ovarian) was 0.385 µM. It also gave a TGI (OVCAR-5 ovarian) of 1.58 µM, a GI50 (OVCAR-8 ovarian) of 59.4 µM and a TGI (OVCAR-8 ovarian) greater than 100 µM. It also gave a GI50 (PC-3 prostate) greater than 89.8 µM, a TGI (PC-3 prostate) greater than 100 µM and a GI50 (RPMI-8226 leukemia) of 26.3 µM. It also gave a TGI (RPMI-8226 leukemia) greater than 100 µM, a GI50 (RXF 393 renal) greater than 28.4 µM and a TGI (RXF 393 renal) greater than 100 µM. For the same compound, the GI50 (SF-268 CNS) was greater than 100 µM, the TGI (SF-268 CNS) was greater than 100 µM and the GI50 (SF-295 CNS) was 4.91 µM. It also gave a TGI (SF-295 CNS) greater than 100 µM, a GI50 (SF-539 CNS) greater than 100 µM and a TGI (SF-539 CNS) greater than 100 µM. For the same compound, the GI50 (SK-MEL-2 melanoma) was greater than 76.8 µM, the TGI (SK-MEL-2 melanoma) was greater than 100 µM and the GI50 (SK-MEL-28 melanoma) was greater than 100 µM. For the same compound, the TGI (SK-MEL-28 melanoma) was greater than 100 µM, the GI50 (SK-MEL-5 melanoma) was 72.1 µM and the TGI (SK-MEL-5 melanoma) was greater than 100 µM. It also gave a GI50 (SK-OV-3 ovarian) of 36.1 µM, a TGI (SK-OV-3 ovarian) greater than 100 µM and a GI50 (SN12C renal) greater than 100 µM. For the same compound, the TGI (SN12C renal) was greater than 100 µM, the GI50 (SNB-19 CNS) was greater than 100 µM and the TGI (SNB-19 CNS) was greater than 100 µM. For the same compound, the GI50 (SNB-75 CNS) was greater than 51.7 µM, the TGI (SNB-75 CNS) was greater than 100 µM and the GI50 (SR leukemia) was greater than 100 µM. For the same compound, the TGI (SR leukemia) was greater than 100 µM, the GI50 (SW-620 colon) was 22.8 µM and the TGI (SW-620 colon) was greater than 100 µM. It also gave a GI50 (T-47D breast) of 0.927 µM, a TGI (T-47D breast) of 5.5 µM and a GI50 (TK-10 renal) of 0.199 µM. It also gave a TGI (TK-10 renal) of 0.744 µM, a GI50 (U251 CNS) of 23.6 µM and a TGI (U251 CNS) greater than 100 µM. It also gave a GI50 (UACC-257 melanoma) of 0.719 µM, a TGI (UACC-257 melanoma) of 2.42 µM and a GI50 (UACC-62 melanoma) of 0.923 µM. For the same compound, the TGI (UACC-62 melanoma) was 7.83 µM, the GI50 (UO-31 renal) was 69.3 µM and the TGI (UO-31 renal) was greater than 100 µM.
